Test results published in patent US20250134103A1, “PESTICIDAL MIXTURES COMPRISING AN IS[…]” (priority 2021, published 2025).
Where two headings read alike, the source gives them in different places.

Legend:
Type in all cases: in vivo
[1] = tested on: tobacco budworm (Heliothis virescens); test: Test 1: control of tobacco budworm, 96-well microtiter plates with insect diet and eggs
Procedure: For evaluating control of tobacco budworm (Heliothis virescens) the test unit consisted of 96-well-microtiter plates containing an insect diet and 15-25 H. virescens eggs.
The compounds or mixtures were formulated using a solution containing 75% water and 25% DMSO. Different concentrations of formulated compounds or mixtures were sprayed onto the insect diet at 10 μl, using a custom-built micro atomizer, at two replications.
For experimental mixtures in these tests, identical volumes of both mixing partners at the desired concentrations respectively, were mixed together.
After application, microtiter plates were incubated at 28±1° C., 80±5% RH for 5 days. Egg and larval mortality were then visually assessed. For the mixture tested the results are listed in Tables 1.1 to 1.7, wherein the * marks synergistic control effect according to Colby's equation.

[2] = tested on: yellow fever mosquito (Aedes aegypti); test: whole plant or invertebrate
Procedure: For evaluating control of yellow fever mosquito (Aedes aegypti) the test unit consisted of 96-well-microtiter plates containing 200 μl of tap water per well and 5-15 freshly hatched A. aegypti larvae.
The compounds or mixtures were formulated using a solution containing 75% water and 25% DMSO. Different concentrations of formulated compounds or mixtures were sprayed onto the insect diet at 2.5 μl, using a custom-built micro atomizer, at two replications.
(§1) For experimental mixtures in these tests identical volumes of both mixing partners at the desired concentrations respectively, were mixed together.
After application, microtiter plates were incubated at 28±1° C., 80±5% RH for 2 days. Larval mortality was then visually assessed. For the mixture tested the results are listed in Table 2.1 to 2.11, wherein the * marks synergistic control effect according to Colby's equation.

[3] = tested on: green peach aphid (Myzus persicae); test: Test 3: control of green peach aphid through systemic means, artificial diet under membrane; settings: aphid mortality and fecundity after 3 days
Source text: For evaluating control of green peach aphid (Myzus persicae) through systemic means the test unit consisted of 96-well-microtiter plates containing liquid artificial diet under an artificial membrane.
Different concentrations of formulated compounds or mixtures were pipetted into the aphid diet, using a custom built pipetter, at two replications.
as §1
After application, 5-8 adult aphids were placed on the artificial membrane inside the microtiter plate wells. The aphids were then allowed to suck on the treated aphid diet and incubated at 23±1° C. 50±5% RH for 3 days. Aphid mortality and fecundity was then visually assessed.

[4] = tested on: boll weevil (Anthonomus grandis); test: Test 4: control of boll weevil, 24-well microtiter plates with insect diet and eggs; settings: egg and larval mortality after 5 days
Procedure: For evaluating control of boll weevil (Anthonomus grandis) the test unit consisted of 24-well-microtiter plates containing an insect diet and 20-30 A. grandis eggs.
The compounds or mixtures were formulated using a solution containing 75% water and 25% DMSO. Different concentrations of formulated compounds or mixtures were sprayed onto the insect diet at 20 μl, using a custom-built micro atomizer, at two replications.
as §1
After application, microtiter plates were incubated at 23±1° C., 50±5% RH for 5 days. Egg and larval mortality was then visually assessed. For the mixture tested the results are listed in tables 4.1 to 4.4, wherein the * marks synergistic control effect according to Colby's equation.

[5] = tested on: tobacco budworm (Plutella xylostella); test: Test 5: control of Plutella xylostella, 96-well microtiter plates with insect diet and eggs; settings: egg and larval mortality after 5 days
Procedure: For evaluating control of […] (Plutella xylostella) the test unit consisted of 96-well-microtiter plates containing an insect diet and 15-25 P. xylostella eggs.
The compounds or mixtures were formulated using a solution containing 75% water and 25% DMSO. Different concentrations of formulated compounds or mixtures were sprayed onto the insect diet at 5 μl, using a custom-built micro atomizer, at two replications.
as §1
After application, microtiter plates were incubated at 28±1° C., 80±5% RH for 5 days. Egg and larval mortality was then visually assessed.

[6] = Heliothis virescens, 120 h, 0.4 ppm, egg and larval mortality after 5 days, read-out: Average control observed (%)
[7] = Aedes aegypti, 48 h, 0.4 ppm, larval mortality after 2 days, read-out: Average control observed (%)
[8] = Aedes aegypti, 48 h, 4 ppm, larval mortality after 2 days, read-out: Average control observed (%)
[9] = 2 ppm, larval mortality after 2 days
[10] = 0.4 ppm, larval mortality after 2 days

With `Cc1c(COC(=O)[C@@H]2[C@H](/C=C(\Cl)C(F)(F)F)C2(C)C)cccc1-c1ccccc1` (racemic) [Bifenthrin (2b), bifenthrin] the pest or weed control at 0.4 ppm [1, 6] was 0% and the pest or weed control at 0.4 ppm [2, 7] was 25%.

In the case of `C/C(=N\C#N)N(C)Cc1ccc(Cl)nc1` [Acetamiprid (3d), acetamiprid], the pest or weed control at 4 ppm [2, 8] is reported as 0%.

For `CN(C(=O)c1ccccc1)c1cccc(C(=O)Nc2c(Br)cc(C(F)(C(F)(F)F)C(F)(F)F)cc2C(F)(F)F)c1F` [Broflanilide (16), broflanilide], the “Average control observed (%)” value [2, 9] was 12.5%.

In the case of `CNC(=O)c1cc(Cl)cc(C)c1NC(=O)c1cc(Br)nn1-c1ncccc1Cl` [Chlorantraniliprole (14b), Chlorantraniliprole], the “Average control observed (%)” value ([3]; 0.4 ppm) is reported as 0%.

Work on `CCOCn1c(-c2ccc(Cl)cc2)c(C#N)c(Br)c1C(F)(F)F` [Chlorfenapyr (8), chlorfenapyr] yielded a pest or weed control at 0.8 ppm ([2]; Aedes aegypti, 48 h, 0.8 ppm, larval mortality after 2 days, read-out: Average control observed (%)) of 0%.

In the case of `CN/C(=N\[N+](=O)[O-])NCc1cnc(Cl)s1` [Clothianidin (3c), clothianidin], the pest or weed control at 1 ppm ([2]; Aedes aegypti, 48 h, 1 ppm, larval mortality after 2 days, read-out: Average control observed (%)) is reported as 0%.

With `O=C(NCc1ncccn1)c1ccc(C2=NO[C@@](c3cc(Cl)c(F)c(Cl)c3)(C(F)(F)F)C2)c2ccncc12` [Compound I-1, 5-[(5S)-5-(3,5-dichloro-4-fluoro-phenyl)-5-(trifluoromethyl)-4H-isoxazol-3-yl]-N-(pyrimidin-2-ylmethyl)isoquinoline-8-carboxamide] the pest or weed control at 0.009 ppm ([1]; Heliothis virescens, 120 h, 0.009 ppm, egg and larval mortality after 5 days, read-out: Average control observed (%)) was 0%, the pest or weed control at 0.048 ppm ([1]; Heliothis virescens, 120 h, 0.048 ppm, egg and larval mortality after 5 days, read-out: Average control observed (%)) was 0% and the pest or weed control at 0.24 ppm ([1]; Heliothis virescens, 120 h, 0.24 ppm, egg and larval mortality after 5 days, read-out: Average control observed (%)) was 0%. The pest or weed control at 0.009 ppm ([2]; Aedes aegypti, 48 h, 0.009 ppm, larval mortality after 2 days, read-out: Average control observed (%)) was 0%, the pest or weed control at 0.048 ppm ([2]; Aedes aegypti, 48 h, 0.048 ppm, larval mortality after 2 days, read-out: Average control observed (%)) was 0% and the pest or weed control at 0.24 ppm ([2]; Aedes aegypti, 48 h, 0.24 ppm, larval mortality after 2 days, read-out: Average control observed (%)) was 0%. The “Average control observed (%)” value ([3]; 0.009 ppm) was 0%, the “Average control observed (%)” value ([3]; 0.24 ppm) was 0% and the “Average control observed (%)” value ([4]; 0.048 ppm) was 0%. For the same molecule, the “Average control observed (%)” value ([4]; 0.24 ppm) was 0% and the “Average control observed (%)” value ([5]; 0.05 ppm) was 0%.

In the case of `CC1(C)C(C=C(Cl)Cl)C1C(=O)OC(C#N)c1ccc(F)c(Oc2ccccc2)c1` (centres unmarked) [Cyfluthrin (2c), cyfluthrin], the “Average control observed (%)” value [2, 10] is reported as 0%.

`CCN(C(=O)c1cnn(C(C)C(C)C)c1C)c1ccnnc1` (centres unmarked) [Dimpropyridaz (17b), dimpropyridaz] was tested, and the “Average control observed (%)” value ([3]; 2 ppm) was 0%.

`CN/C(=N/CC1CCOC1)N[N+](=O)[O-]` (centres unmarked) [Dinotefuran (3f), dinotefuran] gave a pest or weed control at 20 ppm ([1]; Heliothis virescens, 120 h, 20 ppm, egg and larval mortality after 5 days, read-out: Average control observed (%)) of 0% and a pest or weed control at 4 ppm ([2]; Aedes aegypti, 48 h, read-out: Average control observed (%)) of 0%.

For `N#Cc1nn(-c2c(Cl)cc(C(F)(F)F)cc2Cl)c(N)c1[S+]([O-])C(F)(F)F` (centres unmarked) [Fipronil (1b), fipronil], the pest or weed control at 0.08 ppm ([1]; Heliothis virescens, 120 h, read-out: Average control observed (%)) was 0%, the pest or weed control at 0.4 ppm [2, 7] was 0% and the “Average control observed (%)” value ([4]; 0.4 ppm) was 12.5%.

With `Cc1cc(C(F)(C(F)(F)F)C(F)(F)F)ccc1NC(=O)c1cccc(I)c1C(=O)NC(C)(C)CS(C)(=O)=O` [Flubendiamide (14a), Flubendiamide] the pest or weed control at 0.4 ppm [1, 6] was 12.5%.

For `O=C1C=C(N(Cc2ccc(Cl)nc2)CC(F)F)CO1` [Flupyradifurone (3i), flupyradifurone], the “Average control observed (%)” value ([3]; 2 ppm) was 12.5%.

`O=[N+]([O-])NC1=NCCN1Cc1ccc(Cl)nc1` [Imidacloprid (3b), imidacloprid] was tested, and the “Average control observed (%)” value ([3]; 0.8 ppm) was 0%.

In the case of `COC(=O)N(C(=O)N1CO[C@@]2(C(=O)OC)Cc3cc(Cl)ccc3C2=N1)c1ccc(OC(F)(F)F)cc1` [Indoxacarb (12), indoxacarb], the “Average control observed (%)” value ([1]; 0.4 ppm, egg and larval mortality after 5 days) is reported as 0%, the “Average control observed (%)” value ([2]; 0.08 ppm, larval mortality after 2 days) is reported as 0% and the “Average control observed (%)” value [2, 10] is reported as 0%. For the same molecule, the “Average control observed (%)” value [2, 9] was 0% and the “Average control observed (%)” value ([4]; 0.08 ppm) was 25%.

`COc1cccc(C(=O)NN(C(=O)c2cc(C)cc(C)c2)C(C)(C)C)c1C` [Methoxyfenozide (11), methoxyfenozide] showed a pest or weed control at 0.4 ppm [1, 6] of 37.5%.

In the case of `CCOC(=O)OC1=C(c2cc(C)ccc2C)C(=O)N[C@]12CC[C@@H](OC)CC2` [Spirotetramat (13a), spirotetramat], the pest or weed control at 80 ppm ([2]; Aedes aegypti, 48 h, 80 ppm, larval mortality after 2 days, read-out: Average control observed (%)) is reported as 0%.

For `O=C(NC(=O)c1c(F)cccc1F)Nc1cc(Cl)c(F)c(Cl)c1F` [Teflubenzuron (9), teflubenzuron], the “Average control observed (%)” value ([4]; 0.1 ppm) was 12.5%.

For `N#C/N=C1\SCCN1Cc1ccc(Cl)nc1` [Thiacloprid (3e), thiacloprid], the pest or weed control at 4 ppm [2, 8] was 50%.

In the case of `CN1COCN(Cc2cnc(Cl)s2)/C1=N\[N+](=O)[O-]` [Thiamethoxam (3a), thiamethoxam], the pest or weed control at 0.03 ppm ([1]; Heliothis virescens, 120 h, 0.03 ppm, egg and larval mortality after 5 days, read-out: Average control observed (%)) is reported as 0%, the “Average control observed (%)” value ([4]; 0.03 ppm) is reported as 0% and the “Average control observed (%)” value ([5]; 0.03 ppm) is reported as 0%.

Molecule `CC1(C)C(C=C(Cl)Cl)C1C(=O)OC(C#N)c1cccc(Oc2ccccc2)c1` (stereo not drawn) [alpha-cypermethrin (2a), alpha-cypermethrin] has a pest or weed control at 0.4 ppm [1, 6] of 25%.

With `CC1(C)[C@H](/C=C(\Cl)C(F)(F)F)[C@@H]1C(=O)O[C@@H](C#N)c1cccc(Oc2ccccc2)c1` [lamda-cyhalothrin (2e), lamda-cyhalothrin] the “Average control observed (%)” value ([1]; 0.16 ppm, egg and larval mortality after 5 days) was 50% and the “Average control observed (%)” value ([2]; 0.16 ppm, larval mortality after 2 days) was 0%.

In the case of spinetoram [Spinetoram (4b)], the “Average control observed (%)” value ([1]; 0.2 ppm, egg and larval mortality after 5 days) is reported as 0%.
